In patent US9556202B2, “Sulfonamide derivatives and methods of use thereof for improving the pharmacokinetics of a drug” (MERCK SHARP & DOHME CORP., priority 2012, dated 2017):

How the values were obtained:
CYP2C19 = target: T1, CYP2C19 (Homo sapiens, UniProt P33261); assay: Cocktail CYP inhibition assay in human liver microsomes, mephenytoin 4'-hydroxylation; assay type: in vitro ADME; conditions: human liver microsomes 0.1 mg/mL, 30 μM mephenytoin, 10 min 37° C.; unit inferred
T1 construct: 0.1 mg/mL protein human liver microsomes (BD Gentest); tissue BD Gentest; host or cells: human liver microsomes
T1 sequence (P33261 whole entry): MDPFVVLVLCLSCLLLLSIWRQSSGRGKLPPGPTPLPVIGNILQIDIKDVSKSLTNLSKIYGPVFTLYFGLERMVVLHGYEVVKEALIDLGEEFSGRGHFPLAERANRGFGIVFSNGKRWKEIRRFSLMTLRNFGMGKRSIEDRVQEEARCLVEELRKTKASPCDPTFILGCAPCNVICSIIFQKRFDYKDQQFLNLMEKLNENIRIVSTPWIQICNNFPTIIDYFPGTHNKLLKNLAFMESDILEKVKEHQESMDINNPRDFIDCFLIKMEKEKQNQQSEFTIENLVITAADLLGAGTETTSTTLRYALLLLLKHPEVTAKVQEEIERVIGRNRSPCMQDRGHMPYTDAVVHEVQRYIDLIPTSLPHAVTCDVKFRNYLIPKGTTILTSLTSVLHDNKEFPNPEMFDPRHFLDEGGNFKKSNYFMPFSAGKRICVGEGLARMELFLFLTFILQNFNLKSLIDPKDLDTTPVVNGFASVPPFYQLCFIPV
Method: (§1) Determination of IC50 in a Cocktail Assay for CYPs 1A2, 2C9, 2C19, 2D6 and 3A4
(§2) This assay was performed in a standard 96-well plate design. IC50 values were calculated from the percent inhibition observed for each test compound at 6 concentrations (for example, 0.0032, 0.016, 0.08, 0.4, 2 and 10 μM). The incubation substrate mix contains 10 μM phenacetin (1A2), 5 μM diclofenac (2C9), 30 μM mephenytoin (2C19), 5 μM dextromethorphan (2D6) and 2 μM midazolam (3A4), 0.1 mg/mL protein human liver microsomes (BD Gentest), 1 mM NAPDH, 3.3 mM MgCl2 and 100 mM potassium phosphate buffer (pH 7.4). The production of the metabolite of each probe substrate was determined after incubation for 10 min at 37° C. Quantitation of the metabolite peak area ratio against an internal standard (tolbutamide) was determined by LC/MS/MS analysis following acetonitrile treatment of the incubations.
(§3) Samples were analyzed in the MRM mode with a SCIEX API-4000 mass spectrometer (Applied Biosystems, Foster City, Calif.), with a Shimadzu LC-20 AD pump (Shimadzu corporation, Kyoto, JP) and a CTC PAL autosampler (Agilent Technologies, Switzerland). A Phenomenex, Luna, 5 μm, 100 A, 2.00×30 mm HPLC column was used for the separation. The mobile phases were: (A) 0.1% formic acid in water and (B) 0.1% formic acid in acetonitrile. The binary gradient was as follows.
(§4) The peak area ratio of the analyte to the internal standard was used to quantify the metabolite. The values of peak area ratios in the presence of test compound were compared to those of maximum or minimum controls and were expressed as % inhibition by interpolating between the maximum and minimum peak area ratios. Incubations with no inhibitor were defined as the maxima.
(§5) The following equation was used to calculate the % inhibition: [1−[(X−Low control)/(High control−Low control)]]*100
(§6) For the IC50 calculation, SigmaPlot was used to plot the mean % inhibition versus the test compound concentrations and for non-linear regression analysis of the data. […]

human CYP11B2 = target: T2, human CYP11B2 (Homo sapiens, UniProt P19099); assay: IC50 vs CYP11B2 by aldosterone synthesis in V79 cells (HTRF); assay type: cell-based; conditions: V79 cells expressing human CYP11B2, 750 nM DOC, test conc. 0.5-10000 nM, unit inferred
T2 construct: expressed in transfected cells
T2 sequence (P19099 25-503): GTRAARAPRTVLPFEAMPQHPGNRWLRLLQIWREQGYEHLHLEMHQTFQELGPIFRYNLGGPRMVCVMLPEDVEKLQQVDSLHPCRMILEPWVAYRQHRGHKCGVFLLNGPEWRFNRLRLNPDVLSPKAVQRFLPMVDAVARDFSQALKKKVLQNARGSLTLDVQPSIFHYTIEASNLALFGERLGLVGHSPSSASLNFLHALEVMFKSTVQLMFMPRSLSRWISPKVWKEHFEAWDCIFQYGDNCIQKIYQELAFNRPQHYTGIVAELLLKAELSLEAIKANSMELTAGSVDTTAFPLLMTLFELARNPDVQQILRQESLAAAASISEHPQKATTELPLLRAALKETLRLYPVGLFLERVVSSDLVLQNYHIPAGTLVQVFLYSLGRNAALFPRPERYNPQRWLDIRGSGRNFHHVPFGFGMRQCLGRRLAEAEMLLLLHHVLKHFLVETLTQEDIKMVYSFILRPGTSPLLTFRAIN
Method: (§7) Determination of IC50 Vs CYP11B1/CYP11B2 by Measurement of Cortisol/Aldosterone Synthesis
(§8) This assay was performed in a standard 384-well plate design using cultured V79 cells stably expressing human CYP11B1 or human CYP11B2. Test compounds at 10 concentrations (for example, 10000, 3333.3, 1111.1, 370.4, 123.5, 41.2, 13.7, 4.6, 1.5 and 0.5 nM) were added in 384-well plate after the cell-seeding procedure. The incubation substrate contains 1500 nM RSS for CYP11B1 assay/750 nM DOC for CYP11B2 assay. The Cortisol/Aldosterone production of cell culture supernatant was determined by Cortisol/Aldosterone HTRF kit after for about 15 hours incubation at RT (protect from light). IC50 values were calculated from the percent inhibition observed for each test compound at 10 concentrations.
(§9) The assay plate was read using Envision (Perkin Elmer, Waltham, Mass.) at 665 nm and 590 nm (using Filter Barcode of 217#, 205#; Mirror Barcode of 446#).
(§10) Data are analyzed using Assay Data Analyzer. All ratio data (665 nm/590 nm) are back calculated according to the standard curve, resulting in Cortisol/Aldosterone concentrations. IC50 values are reported as the Inflection Point (IP) of a four parameter fit of the titration data.
(§11) The following equation was used to calculate the % inhibition: % Activity=100×{1−(Sample_back calculated Cortisol/Aldosterone concentration−LC_back calculated Cortisol/Aldosterone concentration)/(HC_back calculated Cortisol/Aldosterone concentration−LC_back calculated Cortisol/Aldosterone concentration)} Curve Fitting: Four Parameter Logistic: […]

human CYP11B1 = target: T3, human CYP11B1 (Homo sapiens, UniProt P15538); assay: IC50 vs CYP11B1 by cortisol synthesis in V79 cells (HTRF); assay type: cell-based; conditions: V79 cells expressing human CYP11B1, 1500 nM RSS, test conc. 0.5-10000 nM, unit inferred
T3 construct: expressed in transfected cells
T3 sequence (P15538 25-503): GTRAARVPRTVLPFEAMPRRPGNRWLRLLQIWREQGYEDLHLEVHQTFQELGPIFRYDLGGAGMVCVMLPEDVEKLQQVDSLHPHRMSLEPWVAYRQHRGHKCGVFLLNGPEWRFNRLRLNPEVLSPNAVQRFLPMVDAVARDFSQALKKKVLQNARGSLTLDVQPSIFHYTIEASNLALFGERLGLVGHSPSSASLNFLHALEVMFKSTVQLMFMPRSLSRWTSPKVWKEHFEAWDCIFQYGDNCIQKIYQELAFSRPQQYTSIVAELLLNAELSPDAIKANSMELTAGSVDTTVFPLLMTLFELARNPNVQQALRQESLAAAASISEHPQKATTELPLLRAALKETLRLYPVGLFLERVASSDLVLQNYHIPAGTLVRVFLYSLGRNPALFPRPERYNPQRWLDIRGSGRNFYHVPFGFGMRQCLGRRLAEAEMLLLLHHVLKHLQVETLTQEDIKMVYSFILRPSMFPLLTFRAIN
Method: as §7, §8, §9, §10, §11

CYP2C9 = target: T4, CYP2C9 (Homo sapiens, UniProt P11712); assay: Cocktail CYP inhibition assay in human liver microsomes, diclofenac 4'-hydroxylation; assay type: in vitro ADME; conditions: human liver microsomes 0.1 mg/mL, 5 μM diclofenac, 10 min 37° C.; unit inferred
T4 construct: 0.1 mg/mL protein human liver microsomes (BD Gentest); tissue BD Gentest; host or cells: human liver microsomes
T4 sequence (P11712 whole entry): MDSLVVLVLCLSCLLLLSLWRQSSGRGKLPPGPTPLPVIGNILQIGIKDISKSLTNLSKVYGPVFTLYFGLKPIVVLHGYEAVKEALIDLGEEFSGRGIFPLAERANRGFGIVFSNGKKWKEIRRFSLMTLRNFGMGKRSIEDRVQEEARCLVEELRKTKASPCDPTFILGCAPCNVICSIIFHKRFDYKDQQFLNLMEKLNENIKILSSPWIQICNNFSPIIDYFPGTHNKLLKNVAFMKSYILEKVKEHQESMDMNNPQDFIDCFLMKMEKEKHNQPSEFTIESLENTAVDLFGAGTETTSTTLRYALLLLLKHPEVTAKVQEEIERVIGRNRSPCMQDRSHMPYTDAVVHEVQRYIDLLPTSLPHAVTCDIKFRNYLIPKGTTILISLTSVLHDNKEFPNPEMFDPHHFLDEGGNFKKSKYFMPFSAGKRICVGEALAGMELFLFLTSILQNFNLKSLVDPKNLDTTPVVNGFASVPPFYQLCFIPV
Method: as §1, §2, §3, §4, §5, §6

IC50 (CYP2C19) | IC50 (human CYP11B2) | IC50 (human CYP11B1) | IC50 (CYP2C9) | Compound
4.18 µM | 1.31 µM | 2.14 µM | 1.22 µM | C[C@H](c1ccc(F)cc1)n1cncc1C1CCCC2CN(S(=O)(=O)c3cnc(Nc4ccccn4)s3)CCN21 (single isomer, unassigned) [Compound 38]
> 10 µM | 5 µM | 2.18 µM | > 10 µM | COCC(c1cncn1[C@H](C)c1ccc(F)cc1)N1CCN(S(=O)(=O)c2cnc(N3CCN(C)CC3)s2)CC1 (single isomer, unassigned) [Compound 35]
> 10 µM | 3.83 µM | 1.35 µM | > 10 µM | COCCC(c1cncn1[C@H](C)c1ccc(F)cc1)N1CCN(S(=O)(=O)c2cnc(N3CCN(C)CC3)s2)CC1 (single isomer, unassigned) [Compound 36]
